# Starred links: 1 amine or outer side, 2 acyl side, 3 side chain; linkers in the order of their positions; H or OH if unused. Positions of bridges follow the written chain, without caps; N, C: chain ends. Non-standard residues stand in square brackets, D forms with d. Residues, ends and D or L forms follow the SMILES beside them. Phe(4-F) = N[C@@H](Cc1ccc(F)cc1)C(=O)O; X1 = CCCCCCC[C@H](N[*:1])C(=O)[*:2]; Nle = CCCC[C@H](N)C(=O)O; X2 = C(C[*:1])C[*:2]; βAla = NCCC(=O)O
# What was measured:
# [1] = Pharmacokinetics study in mice, intravenous injection; type: in vivo
# Method: Prior to the in vivo anti-cancer activity evaluation, a preliminary pharmacokinetics (PK) study was completed using a 20 mg/kg intravenous injection. Plasma was collected at 15 min, 1 h, 4 h, and 24 h after injection. […] KS-58 was detected in plasma 15 min and 1 h after intravenous injection, but it was not detected at 4 h and 24 h, due to the limited detection ability of RP-HPLC. The concentration change indicated a two-compartment model (Fig. 5A).
# Animal experiments were carried out at UNITECH Co. Ltd. (Chiba, Japan) in accordance with the guidelines of the Animal Care and Use Committee of UNITECH (approval No. AGR IMF-190807A-30). KS-58 was dissolved in DMSO and then tenfold diluted by saline. The peptide solution was injected intravenously to Slc:ICR male mice (8 weeks old; Japan SLC, Inc.) (20 mg/kg, n = 3). Blood samples were collected from the mice at 15 min, 1 h, 4 h, and 24 h after injection. The blood was chilled on ice and then centrifuged at 12,000 rpm for 3 min at 4 °C. Plasma protein was precipitated by acetonitrile, and the supernatant was recovered. The remaining peptides in prepared samples were analyzed by RP-HPLC as described above.
# [2] = Stability of peptide in rat plasma (RP-HPLC); type: in vitro ADME
# Method: The stability of KS-58 in rat plasma was also evaluated. The peptides were incubated with rat plasma at 37 °C for different time periods (0 and 24 h), and the remaining amount of peptide was then determined using RP-HPLC. By comparing the peak area of the peptide, the remaining amount of peptide after plasma incubation was roughly estimated.
# Each peptide (10 mM, 1 μL) was incubated with rat plasma (20 μL) prepared in house. […] The mixture was stored for 10 min at 4 °C and centrifuged at 15,000 rpm for 10 min at 4 °C. The supernatant was recovered and was directly supplied to RP-HPLC to determine the remaining amount of unmodified peptides in the sample.
# [3] = rat plasma, incubation time 0 h
smiles,measurement,setting,value
"CCCCCCC[C@@H]1NC(=O)[C@@H]2CSCCCSC[C@@H](NC(=O)[C@H](Cc3c[nH]c4ccccc34)NC(=O)[C@@H]3CCCN3C(=O)[C@H](CC(=O)O)NC(=O)[C@H](Cc3ccc(F)cc3)NC(=O)[C@H](CO)NC1=O)C(=O)NCCC(=O)N1CCC[C@H]1C(=O)N[C@@H](CCCC)C(=O)N2 [KS-58, c[βAla-Pro-Nle-c(Cys-Anon-Ser-4fF-Asp-Pro-Trp-^DCys)]] (cyclo([βAla]P[Nle]C[X1]S[Phe(4-F)]DPW[dC]); linker 4-11 via X2)",Detection in plasma by RP-HPLC,"[1]; 20 mg/kg iv, 15 min and 1 h after injection",detected
same,Detection in plasma by RP-HPLC,"[1]; 20 mg/kg iv, 4 h and 24 h after injection",not detected
same,peptide concentration in the blood,"[1]; 20 mg/kg iv, for at least 1 h after the injection",more than 30 μM
same,half-life,"[1]; male, Slc:ICR, mouse, plasma, 20 mg/kg intravenous injection, n = 3, read-out: blood circulation half-life (t1/2) in the elimination phase",60 ± 1.9 min
same,Peak area value,"[2]; Input (NT, no-serum treatment)","491,842"
same,recovery,"[2]; input control without serum treatment, Input (NT, no-serum treatment), read-out: Recovery rate (%)",100%
same,Stability in rat plasma (in words),"[2]; rat plasma, 37 °C, 24 h",remained intact for up to at least 24 h
same,Peak area value,"[2]; rat plasma, 37 °C, incubation time 24 h","467,142"
same,"recovery at 24 h, 0.476 mM","[2]; rat plasma, 37 °C, incubation time 24 h, read-out: Recovery rate (%)",95%
same,"remaining at 24 h, 0.476 mM","[2]; rat plasma, 37 °C, incubation time 24 h, read-out: Residual rate (%)",98.6%
same,Peak area value,[2]; [3],"473,575"
same,Residual rate (%),[2]; [3],100%
same,"recovery at 0 h, 0.476 mM","[2]; rat plasma, incubation time 0 h, read-out: Recovery rate (%)",96.3%

# Source: paper PMC7730438, “Generation of KS-58 as the first K-Ras(G12D)-inhibitory peptide presenting anti-cancer activity in vivo” (Scientific Reports, 2020)
